Measured values as given in patent US10071968B2 (priority 2014, dated 2018).

Target: human σ1 receptor (Homo sapiens, UniProt Q99720)
Test: Human σ1 receptor radioligand assay ([3H](+)-pentazocine, transfected HEK-293 membranes)
Format: binding
Design: μ and σ1 dual binding: key to the marks not given beside the values
Conditions: one combined class for Ki-σ1 (A1) and Ki-μ (human μ-opioid receptor, A2); for Ki: read-out: μ and σ1 dual binding
Protocol: To investigate binding properties of test compounds to human σ1 receptor, transfected HEK-293 membranes and [^3H](+)-pentazocine (Perkin Elmer, NET-1056), as the radioligand, were used. The assay was carried out with 7 μg of membrane suspension, 5 nM of [^3H](+)-pentazocine in either absence or presence of either buffer or 10 μM Haloperidol for total and non-specific binding, respectively. Binding buffer contained Tris-HCl 50 mM at pH 8. Plates were incubated at 37° C. for 120 minutes. After the incubation period, the reaction mix was then transferred to MultiScreen HTS, FC plates (Millipore), filtered and plates were washed 3 times with ice-cold 10 mM Tris-HCL (pH7.4). Filters were dried and counted at approximately 40% efficiency in a MicroBeta scintillation counter (Perkin-Elmer) using EcoScint liquid scintillation cocktail

Chain of human σ1 receptor (Q99720 whole entry): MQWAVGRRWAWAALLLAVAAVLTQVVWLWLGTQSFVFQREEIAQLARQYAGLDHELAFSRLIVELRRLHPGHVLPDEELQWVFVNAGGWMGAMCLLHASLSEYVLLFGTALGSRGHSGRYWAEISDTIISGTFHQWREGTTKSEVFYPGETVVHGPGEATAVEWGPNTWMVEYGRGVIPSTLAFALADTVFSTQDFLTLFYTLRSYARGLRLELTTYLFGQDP

Compound | Ki [nM] | μ and σ1 dual binding
CN(CCOC(c1ccccc1)c1ccnn1C)Cc1ccc(C(F)(F)F)nc1 (stereo not shown) [Example 3, N-methyl-2-((1-methyl-1H-pyrazol-5-yl)(phenyl)methoxy)-N-((6-(trifluoromethyl)pyridin-3-yl)methyl)ethanamine] | > 500 | –
CN(CCOC(c1ccccc1)c1ccnn1C)CCc1ccccc1 (stereo not shown) [Example 7, N-methyl-2-((1-methyl-1H-pyrazol-5-yl)(phenyl)methoxy)-N-phenethylethanamine] | < 500 | –
CN(CCOC(c1ccccc1)c1ccnn1C)Cc1ccc(F)cc1 (stereo not shown) [Example 8, N-(4-fluorobenzyl)-N-methyl-2-((1-methyl-1H-pyrazol-5-yl)(phenyl)methoxy)ethanamine] | – | ++
CN(CCO[C@H](c1ccccc1)c1ccnn1C)Cc1ccccc1 [Example 9, (R)-N-benzyl-N-methyl-2-((1-methyl-1H-pyrazol-5-yl)(phenyl)methoxy)ethanamine] | – | ++
CN(CCO[C@H](c1ccccc1)c1ccnn1C)Cc1ccc(F)cc1 [Example 10, (R)-N-(4-fluorobenzyl)-N-methyl-2-((1-methyl-1H-pyrazol-5-yl)(phenyl)methoxy)ethanamine] | – | ++
CN(CCO[C@H](c1ccccc1)c1ccnn1C)CCc1ccccc1 [Example 11, (R)-N-methyl-2-((1-methyl-1H-pyrazol-5-yl)(phenyl)methoxy)-N-phenethylethanamine] | – | ++
CC(c1ccccc1)N(C)CCOC(c1ccccc1)c1ccnn1C (stereo not shown) [Example 16, N-methyl-2-((1-methyl-1H-pyrazol-5-yl)(phenyl)methoxy)-N-(1-phenylethyl)ethanamine] | – | ++
CN(CCO[C@@H](c1ccccc1)c1ccnn1C)CCc1ccccc1 [Example 19, (S)-N-methyl-2-((1-methyl-1H-pyrazol-5-yl)(phenyl)methoxy)-N-phenethylethanamine] | < 500 | –
COc1cccc(CN(C)CCOC(c2ccccc2)c2ccnn2C)c1 (stereo not shown) [Example 23, N-(3-methoxybenzyl)-N-methyl-2-((1-methyl-1H-pyrazol-5-yl)(phenyl)methoxy)ethanamine] | – | ++
CC(C)N(CCOC(c1ccccc1)c1ccnn1C)Cc1ccccc1 (stereo not shown) [Example 27, N-benzyl-N-(2-((1-methyl-1H-pyrazol-5-yl)(phenyl)methoxy)ethyl)propan-2-amine] | – | ++
CC(C)N(CCOC(c1ccccc1)c1ccnn1C)Cc1cccc(F)c1 (stereo not shown) [Example 29, N-(3-fluorobenzyl)-N-(2-((1-methyl-1H-pyrazol-5-yl)(phenyl)methoxy)ethyl)propan-2-amine] | – | ++
Cc1ccsc1[C@@H](OCCN(C)Cc1ccccc1)c1ccnn1C [Example 30, (S)-N-benzyl-N-methyl-2-((1-methyl-1H-pyrazol-5-yl)(3-methylthiophen-2-yl)methoxy)ethanamine] | – | ++
CN(CCSC(c1ccccc1)c1ccnn1C)Cc1ccccc1 (stereo not shown) [Example 33, N-benzyl-N-methyl-2-((1-methyl-1H-pyrazol-5-yl)(phenyl)methylthio)ethanamine] | < 500 | –
CN(CC[S+]([O-])C(c1ccccc1)c1ccnn1C)Cc1ccccc1 (stereo not shown) [Example 34, N-Benzyl-N-methyl-2-((1-methyl-1H-pyrazol-5-yl)(phenyl)methylsulfinyl)ethanamine] | > 500 | –
COc1ccccc1C(OCCN(C)Cc1ccccc1)c1ccnn1C (stereo not shown) [Example 39, N-benzyl-2-((2-methoxyphenyl)(1-methyl-1H-pyrazol-5-yl)methoxy)-N-methylethanamine] | – | ++
CN(CCOC(c1ccccn1)c1ccnn1C)Cc1ccccc1 (stereo not shown) [Example 40, N-benzyl-N-methyl-2-((1-methyl-1H-pyrazol-5-yl)(pyridin-2-yl)methoxy)ethanamine] | > 500 | –
CN(CCOC(c1cncs1)c1ccnn1C)Cc1ccccc1 (stereo not shown) [Example 41, N-benzyl-N-methyl-2-((1-methyl-1H-pyrazol-5-yl)(thiazol-5-yl)methoxy)ethanamine] | > 500 | –
CN(CCOC(c1cccnc1)c1ccnn1C)Cc1cccc(F)c1 (stereo not shown) [Example 46, N-(3-fluorobenzyl)-N-methyl-2-((1-methyl-1H-pyrazol-5-yl)(pyridin-3-yl)methoxy)ethanamine] | – | ++
COc1ccccc1C(OCCN(C)Cc1cccc(F)c1)c1ccnn1C (stereo not shown) [Example 48, N-(3-fluorobenzyl)-2-((2-methoxyphenyl)(1-methyl-1H-pyrazol-5-yl)methoxy)-N-methylethanamine] | – | ++
CN(CCOC(c1cncs1)c1ccnn1C)Cc1cccc(F)c1 (stereo not shown) [Example 49, N-(3-fluorobenzyl)-N-methyl-2-((1-methyl-1H-pyrazol-5-yl)(thiazol-5-yl)methoxy)ethanamine] | – | ++
CN(CCOC(c1ccc(O)cc1)c1ccnn1C)Cc1ccccc1 (stereo not shown) [Example 51, 4-((2-(benzyl(methyl)amino)ethoxy)(1-methyl-1H-pyrazol-5-yl)methyl)phenol] | – | ++
CN(CCOC(c1ccccc1O)c1ccnn1C)Cc1ccccc1 (stereo not shown) [Example 52, 2-((2-(benzyl(methyl)amino)ethoxy)(1-methyl-1H-pyrazol-5-yl)methyl)phenol] | < 500 | –
